SMILES strings stand for the structures. Bounds are passed on as bounds.

These results are taken from patent publication US11767302B2, “Reagents and methods for tetrazine synthesis” (University of Delaware, priority 2020, dated 2023).

The nature of one series: Experimental log P. It is filed as physicochemical.
Series [1] in a line: Stopped-flow kinetic analysis of tetrazines with eq-5-hydroxy-trans-cyclooctene in PBS buffer at 25° C. As to conditions: for k2, second order rate constant / kobs: PBS pH 7.4, 25° C.; for k2, second order rate constant: linear regression of kobs; for kobs: 0.025 mM tetrazine; for krel: relative to 5b, PBS, 25° C. On the procedure: Solutions (5 mL) of tetrazines 5b, 6c, 5l, 6a and 4f (0.050 mM) were prepared in PBS buffer (pH 7.4). Solutions (10 mL) of eq-5-hydroxy-trans-cyclooctene (0.50, 0.60, 0.70, 0.80 mM) were prepared in PBS buffer (pH 7.4). The reactions between tetrazines and trans-cyclooctene were measured under pseudo-first order conditions using SX 18MV-R stopped-flow spectrophotometer (Applied Photophysics Ltd.). Each solution of tetrazine and trans-cyclooctene were injected in equal volumes via 3 mL syringes into the stopped-flow instrument at 25° C., resulting in final concentration of 0.025 mM of tetrazines and 0.25, 0.30, 0.35, 0.40 mM trans-cyclooctene. The reaction was monitored by the decay of absorbance associated with the tetrazines (5b at 263 nm, 6c at 268 nm, 5l at 274 nm, 6a at 296 nm, 4f at 266 nm). Reaction were repeated in triplicate. With Prism software, an observed rate constant, kobs, was obtained by nonlinear regression. Second order rate constants, k2, were calculated by linear regression between kobs and final concentration of trans-cyclooctene.

A short description of series [2]: Tetrazine stability in Opti-MEM media in ambient light at 25° C. It counts as physicochemical. As to conditions: 400 μM. On the procedure:
Solutions (10 mL) of tetrazine 5b and 6c (400 μM) were prepared in Opti-MEM media in vials and stored in ambient light at 25° C. 2 mL of solution was extracted by 2 mL of Et2O in different time point. Tetrazine concentrations were determined by recording the absorbance of Et2O at 545 nm.

A short description of series [3]: Tetrazine stability in PBS buffer in ambient light at 25° C. It counts as physicochemical. As to conditions: PBS buffer pH 7.4, ambient light, day 0-5. On the procedure:
Solutions (3 mL) of tetrazine 5b, 5l and 6c (400 μM) were prepared in PBS buffer (pH 7.4) in vials and stored in ambient light at 25° C. Tetrazine concentrations were determined by recording the absorbance at 518 nm (6c) and 520 nm (5b and 5l) in cuvettes in day 0, 1, 3 and 5. A solution of 6a (50 μM) was prepared in PBS buffer (pH 7.4) in vials and stored in ambient light at room temperature. Tetrazine concentration was determined by recording the absorbance at 520 nm in cuvettes at day 0, 1, 3 and 5.

Series [4] is described as follows: Stopped-flow kinetic analysis of MAGL tetrazines with eq-5-hydroxy-trans-cyclooctene in MeOH at 25° C. Particulars: for kobs: 0.04 mM tetrazine, 0.40 mM trans-cyclooctene, MeOH; for kobs / krel: 25° C.; for krel: relative to 12, MeOH. On the procedure:
Solutions (3 mL) of tetrazines 100a, 100b, 100c and 12 (0.080 mM) was prepared in MeOH. Solutions (3 mL) of eq-5-hydroxy-trans-cyclooctene (0.80 mM) were prepared in MeOH. The reactions between tetrazines and trans-cyclooctene were measured under pseudo-first order conditions using SX 18MV-R stopped-flow spectrophotometer (Applied Photophysics Ltd.). Each solution of tetrazine and trans-cyclooctene were injected in equal volumes via 3 mL syringes into the stopped-flow instrument at 25° C., resulting in final concentration of 0.04 mM of tetrazines and 0.40 mM trans-cyclooctene. The reaction was monitored by the decay of absorbance associated with the tetrazines (10a and 10b at 300 nm, 10c at 280 nm). Reaction were repeated in triplicate. With Prism software, an observed rate constant, kobs, was obtained by nonlinear regression.

The next series addresses T1, human MAGL enzyme (Homo sapiens, UniProt Q99685).
T1 sequence (Q99685 1-303): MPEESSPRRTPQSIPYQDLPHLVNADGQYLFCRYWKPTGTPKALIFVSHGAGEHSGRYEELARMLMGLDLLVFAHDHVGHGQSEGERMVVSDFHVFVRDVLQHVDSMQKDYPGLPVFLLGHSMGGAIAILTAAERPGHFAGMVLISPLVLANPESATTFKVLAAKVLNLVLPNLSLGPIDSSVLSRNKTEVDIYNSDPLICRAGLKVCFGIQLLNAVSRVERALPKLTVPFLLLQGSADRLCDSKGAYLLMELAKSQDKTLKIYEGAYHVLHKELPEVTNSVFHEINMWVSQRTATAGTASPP
In words: MAGL in vitro activity assay (7-HCA substrate, fluorescence). It counts as biochemical. Particulars: human MAGL pre-treated 30 min at room temperature, 7-HCA substrate 1 h; read-out: IC50, inhibition of MAGL activity in vitro. As to the method: MAGL in vitro activity assay. The MAGL in vitro activity assay was performed based on a reported protocol. Briefly, human MAGL enzyme was pre-treated with compounds at room temperature for 30 min, and subsequently incubated with 7-hydroxycoumarinyl arachidonate (7-HCA) as a substrate at room temperature for 1 h. The fluorescence signals were measured on an Envision plate reader (excitation 355 nm, emission 460 nm).

For another series, the system named is MAGL. In words: Cellular labeling kinetics of TCO-TAMRA with MAGL probes in live human brain vascular pericytes. It is filed as cell-based. Particulars: for extent of MAGL labeling at the probe concentration used: 100c 1 μM or 12 32 nM, 37° C., 1 h. On the procedure:
To measure the cellular labeling kinetics of TCO-TAMRA with 100c and 12, live cells were treated with 100c (1 μM) or 12 (32 nM) at 37° C. for 1 h. […] Subsequently, the cells were washed with fresh growth media, which were placed with fresh media containing 50 nM, 200 nM, or 2 μM of TCO-TAMRA, and the cells were incubated at 37° C. for 2, 5, 10, 15, 20, 30, and 60 min. To quench the reaction, the media were replaced with PBS containing 100 μM tetrazine amine, and the cells were washed with cold PBS and harvested with a scrapper.
The suspensions were centrifuged at 10,000×g for 1 min at 37° C., and the cell pellets were lysed in PBS containing 0.25% sodium dodecyl sulfate (SDS) with sonication. The protein concentration was measured with a bicinchoninic acid (BCA) assay kit (Thermo Scientific) and normalized.
In-gel fluorescence and data analysis. Same procedure as described in Example 17 was used.

In a further series the target is T2, endogenous MAGL (Homo sapiens, UniProt Q99685).
T2 sequence (Q99685 1-303): T1 sequence (Q99685 1-303)
In words: Labeling of endogenous MAGL in live cells, gel-based ABPP with TCO-TAMRA. It is filed as cell-based. As to conditions: human brain vascular pericytes, probe 1 h, 2 μM TCO-TAMRA 30 min. As to the method: Cell culture and probe treatment. Human brain vascular pericytes were cultured in Dulbecco's Modified Eagle Medium/Nutrient Mixture F-12 (DMEM/F-12) GlutaMAX media supplemented with 5% heat-inactivated fetal bovine serum (HI FBS), 1× pericyte growth supplement (PGS), and 1× penicillin-streptomycin at 37° C. with 5% CO2 in a humidified environment. Probe treatment was performed in duplicates. Cells were plated in 6-well plates and cultured overnight in growth media. Live cells were then treated with 300 nM KML29 as a competitor compound (or DMSO as a control) at 37° C. for 1 h. Cells were subsequently treated with probe 9 (0.3 nM-3.2 μM) at 37° C. for 1 h (cells pre-treated with KML29 were treated with 32 nM of probe 9), after which the cells were washed with fresh growth media. The media were then placed with fresh media containing 2 μM of TCO-TAMRA, and the cells were incubated at 37° C. for 30 min. To quench the reaction, the media were replaced with PBS containing 100 μM tetrazine amine, and the cells were washed with cold PBS and harvested with a scrapper. The suspensions were centrifuged at 10,000×g for 1 min at 37° C., and the cell pellets were lysed in PBS containing 0.25% sodium dodecyl sulfate (SDS) with sonication. The protein concentration was measured with a bicinchoninic acid (BCA) assay kit (Thermo Scientific) and normalized. In-gel fluorescence and data analysis. The proteomes were analyzed with 1.0 mm thick 4-12% bis-tris 15-well protein gels in 2-(N-morpholino)ethanesulfonic acid (MES) buffer. The gels were scanned with a Typhoon FLA 9500 Biomolecular Imager (GE Healthcare) with the TAMRA channel with 532 nm excitation and a 575 nm long pass emission filter. To measure the total protein loading, the gels were treated with ClearPage Instant Blue (CBS Scientific) overnight, and after brief destaining with water, scanned with an Odyssey Imager (Li-COR) at the 700 nm channel. The in-gel fluorescence images were processed with ImageJ software (v1.47, NIH), and the intensities were quantified with Image Studio (v5.2, Li-COR) with background subtraction. The coomassie images were processed and quantified with the Image Studio software with background subtraction. For analysis of the cellular potency, the in-gel fluorescence intensities of the two MAGL bands were averaged, normalized with the total coomassie intensity of the corresponding sample, and fitted with a dose-response equation with Prism v7.02 (GraphPad). […] The media were then placed with fresh media containing 2 μM of TCO-TAMRA, and the cells were incubated at 37° C. for 30 min. […] The protein concentration was measured with a bicinchoninic acid (BCA) assay kit (Thermo Scientific) and normalized. In-gel fluorescence and data analysis. […]

For series [5] the following is noted: 30° C. to 400/500° C. at 5° C./min.
Method: DSC data was obtained on a Mettler-Toledo Differential Scanning Calorimeter 3+. Samples were loaded into a goldplated high-pressure pan, held at 30° C. for 10 minutes, then a gradient of 30° C. to 400/500° C. at 5° C./min.

Consider `COC(=O)CCc1nnc(-c2ccccc2)nn1` [5b, methyl 3-(6-phenyl-1,2,4,5-tetrazin-3-yl)propanoate], for which the logP in “Experimental log P” was found to be 2.2. Besides, the “k2, second order rate constant” value in series [1] was determined as 197.9 ± 13.36 M⁻¹ s⁻¹. The kobs in [1] (TCO 0.25 mM) came out at 0.57 s⁻¹; in series [1] (TCO 0.30 mM), 0.065 s⁻¹; in [1] (TCO 0.35 mM) it was 0.075 s⁻¹; in [1] (TCO 0.40 mM), 0.87 s⁻¹. Besides, the krel in [1] worked out at 1.0. Besides, the decomposition per day is listed as 6.7% in series [2] and 1.8% in series [3].

The compound `C=C(OCC)c1nnc(CCC(=O)OC)nn1` [6c, methyl 3-(6-(1-ethoxyvinyl)-1,2,4,5-tetrazin-3-yl)propanoate] gave a logP in “Experimental log P” of 0.89. The “k2, second order rate constant” value in series [1] came out at 833 ± 35.7 M⁻¹ s⁻¹. Further, the kobs in series [1] (TCO 0.25 mM) came out at 0.20 s⁻¹; in series [1] (TCO 0.30 mM), 0.24 s⁻¹; in [1] (TCO 0.35 mM) it was 0.28 s⁻¹; in series [1] (TCO 0.40 mM), 0.33 s⁻¹. The “times faster than 5b” value in series [1] (reaction with 5-hydroxyTCO) was determined as 4.2 times. Also, in series [1], the krel stood at 4.2. The decomposition per day in series [2] is recorded as 10.8%; in [3] it was 3.9%.

Take `O=C(OC(C(F)(F)F)C(F)(F)F)N1CCC(CNS(=O)(=O)c2ccc(-c3nncnn3)cc2)CC1` [100c, 1,1,1,3,3,3-hexafluoropropan-2-yl 4-((4-(1,2,4,5-tetrazin-3-yl)phenylsulfonamido)methyl)piperidine-1-carboxylate]: in series [4], the kobs amounted to 0.2011 s⁻¹ and the krel stood at 162. Besides, in [4] (stopped flow kinetics with 5-hydroxyTCO), the “times more reactive than 100b” value was determined as 6.5 times. Moreover, the concentration for half-maximal inhibition (IC50) on human MAGL enzyme came out at 0.016 µM. In the series on MAGL (100c 1 μM 1 h, then 2 μM TCO-TAMRA, first data point), the “time at which labeling was complete” value is on record as at most 2 min. Also, the “extent of MAGL labeling at the probe concentration used” value in the series on MAGL is listed as “full labeling of MAGL”. The “labeling of MAGL by gel-based ABPP” value at endogenous MAGL was “strong labeling of MAGL”.

On to `Cc1nnc(SCc2ccc(-c3ccccc3)cc2)nn1` [b-Tz, 3-([1,1′-biphenyl]-4-ylmethylthio)-6-methyl-1,2,4,5-tetrazine], for which, in series [5], the DSC onset temperature worked out at 170 °C and the DSC transition enthalpy worked out at 900 J/g.

In series [4], `Cc1nnc(-c2ccc(-n3ccc(C4CCN(C(=O)OC(C(F)(F)F)C(F)(F)F)CC4)n3)cc2)nn1` [compound 12, reference compound] showed a kobs of 0.001244 s⁻¹ and a krel of 1. Moreover, in the series on MAGL, the “extent of MAGL labeling at the probe concentration used” value is reported as “full labeling of MAGL”.

By logP is commonly meant the decadic logarithm of the partition coefficient of the neutral form, usually between octanol and water. Low readings indicate lower lipophilicity, high ones higher lipophilicity. By IC50 is commonly meant the concentration needed to halve the response being measured.
